The assay has as its system CD2F1 mice, L1210 leukemia ip, survival T/C. As to the kind of experiment: NCI In Vivo Anticancer Drug Screen. Data for tumor model L1210 Leukemia (intraperitoneal) in CD2F1 (CDF1) mice. The note with it: higher = longer survival. A digest of the protocol:
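Each value reflects a quotient of treated over vehicle control outcomes in mice with a transplanted tumor.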

Setting [1] is: endpoint: mean survival time, dose: 100.0 mg/kg/injection, schedule: Q01DX009 (ip), vehicle: saline.
The mark [2] stands for this setting: endpoint: mean survival time, dose: 100.0 mg/kg/injection, schedule: Q04DX003 (ip), vehicle: saline.
Setting [3] is: endpoint: mean survival time, dose: 200.0 mg/kg/injection, schedule: Q01DX009 (ip), vehicle: saline.
Where [4] appears, read: endpoint: mean survival time, dose: 200.0 mg/kg/injection, schedule: Q04DX003 (ip), vehicle: saline.
[5] abbreviates: endpoint: mean survival time, dose: 400.0 mg/kg/injection, schedule: Q01DX009 (ip), vehicle: saline.
Where [6] appears, read: endpoint: mean survival time, dose: 400.0 mg/kg/injection, schedule: Q04DX003 (ip), vehicle: saline.
The mark [7] stands for this setting: endpoint: mean survival time, dose: 100.0 mg/kg/injection, schedule: Q01DX001 (ip), vehicle: saline.
Setting [8] is: endpoint: mean survival time, dose: 100.0 mg/kg/injection, schedule: Q04DX003 (ip), vehicle: saline with Tween-80.
The mark [9] stands for this setting: endpoint: mean survival time, dose: 200.0 mg/kg/injection, schedule: Q04DX003 (ip), vehicle: saline with Tween-80.
[10] abbreviates: endpoint: mean survival time, dose: 400.0 mg/kg/injection, schedule: Q04DX003 (ip), vehicle: saline with Tween-80.
The mark [11] stands for this setting: endpoint: mean survival time, dose: 50.0 mg/kg/injection, schedule: Q01DX001 (ip), vehicle: saline.
Where [12] appears, read: endpoint: mean survival time, dose: 100.0 mg/kg/injection, schedule: Q01DX001 (ip), vehicle: saline with Tween-80.
[13] abbreviates: endpoint: mean survival time, dose: 200.0 mg/kg/injection, schedule: Q01DX001 (ip), vehicle: saline with Tween-80.
Where [14] appears, read: endpoint: mean survival time, dose: 400.0 mg/kg/injection, schedule: Q01DX001 (ip), vehicle: saline with Tween-80.
Where [15] appears, read: endpoint: mean survival time, dose: 200.0 mg/kg/injection, schedule: Q01DX001 (ip), vehicle: saline.
Where [16] appears, read: endpoint: mean survival time, dose: 400.0 mg/kg/injection, schedule: Q01DX001 (ip), vehicle: saline.
[17] abbreviates: endpoint: mean survival time, dose: 100.0 mg/kg/injection, schedule: Q01DX009 (ip), vehicle: saline with Tween-80.
[18] abbreviates: endpoint: mean survival time, dose: 200.0 mg/kg/injection, schedule: Q01DX009 (ip), vehicle: saline with Tween-80.
Setting [19] is: endpoint: mean survival time, dose: 400.0 mg/kg/injection, schedule: Q01DX009 (ip), vehicle: saline with Tween-80.

SMILES strings stand for the structures. “And” between values parts separate entries of the source, which are not always exact repeats. Identical values can stand only once. Inconclusive results and toxic doses are left out.

For the molecule `Cc1ccc(S(=O)(=O)/C=C(/I)C(=O)c2ccccc2)cc1`, the T/C under setting [1] was 90 % of control; the T/C under setting [2] is 100 % of control; the T/C under setting [3] was 93 % of control; the T/C under setting [4] was 96 % of control; the T/C under setting [5] is 88 % of control; the T/C under setting [6] was 108 % of control.

On to `CCOC(=O)/C=C/SCC(N)C(=O)OCC` (stereo unspecified), for which the T/C (endpoint: mean survival time, dose: 25.0 mg/kg/injection, schedule: Q04DX002 (ip), vehicle: saline) was 98 % of control; the T/C (endpoint: mean survival time, dose: 50.0 mg/kg/injection, schedule: Q04DX002 (ip), vehicle: saline) was 94 % of control; the T/C under setting [7] was 101 % of control; the T/C (endpoint: mean survival time, dose: 100.0 mg/kg/injection, schedule: Q04DX002 (ip), vehicle: saline) is 96 % of control.

`Cc1cn(C2CC(O)C(CO)O2)c(=O)[nH]c1=O` (stereo unspecified): the T/C is, setting by setting: (endpoint: mean survival time, dose: 12.5 mg/kg/injection, schedule: Q01DX009 (ip), vehicle: saline) 95 % of control and 104 % of control; (endpoint: mean survival time, dose: 25.0 mg/kg/injection, schedule: Q01DX009 (ip), vehicle: saline) 91 % of control and 103 % of control; (endpoint: mean survival time, dose: 50.0 mg/kg/injection, schedule: Q01DX009 (ip), vehicle: saline) 91 % of control and 104 % of control; under setting [1], 98 % of control; under setting [3], 95 % of control and 103 % of control; (endpoint: mean survival time, dose: 250.0 mg/kg/injection, schedule: Q03HX008 (ip), vehicle: saline) 102 % of control. In addition, the T/C is, setting by setting: under setting [5], 92 % of control; (endpoint: mean survival time, dose: 500.0 mg/kg/injection, schedule: Q03HX008 (ip), vehicle: saline) 110 % of control; (endpoint: mean survival time, dose: 1000.0 mg/kg/injection, schedule: Q03HX008 (ip), vehicle: saline) 102 % of control.

`COc1ccccc1OC(=O)Nc1cc([N+](=O)[O-])ccc1C`: the T/C reads like this: under setting [8], 89 % of control; under setting [9], 97 % of control; under setting [10], 87 % of control.

Take `NCCCCCC(=O)O`: the T/C is, setting by setting: (endpoint: mean survival time, dose: 25.0 mg/kg/injection, schedule: Q01DX001 (ip), vehicle: saline) 98 % of control; under setting [11], 98 % of control; under setting [7], 93 % of control; under setting [1], 94 % of control; under setting [2], 89 % of control; under setting [3], 96 % of control. In addition, the T/C is, setting by setting: under setting [4], 98 % of control; under setting [5], 97 % of control; under setting [6], 102 % of control.

As to `CC(C)=CC(=O)OC1C2C(C)=CC(=O)C(O)C2(C)C2C3(O)OCC24C(CC(=O)OC14)C(C)C3O` (stereo unspecified), the T/C by setting is: (endpoint: mean survival time, dose: 0.25 mg/kg/injection, schedule: Q01DX009 (ip), vehicle: distilled water + Tween-80) 110 % of control; (endpoint: mean survival time, dose: 0.5 mg/kg/injection, schedule: Q01DX009 (ip), vehicle: distilled water + Tween-80) 124 % of control; (endpoint: mean survival time, dose: 1.0 mg/kg/injection, schedule: Q01DX009 (ip), vehicle: distilled water + Tween-80) 112 % of control; (endpoint: mean survival time, dose: 2.0 mg/kg/injection, schedule: Q01DX009 (ip), vehicle: saline with Tween-80) 151 % of control; (endpoint: median survival time, dose: 0.25 mg/kg/injection, schedule: Q01DX009 (ip), vehicle: distilled water + Tween-80 + alcohol) 122 % of control; (endpoint: median survival time, dose: 0.5 mg/kg/injection, schedule: Q01DX009 (ip), vehicle: distilled water + Tween-80 + alcohol) 124 % of control. Moreover, the T/C (endpoint: median survival time, dose: 2.0 mg/kg/injection, schedule: Q01DX009 (ip), vehicle: distilled water + Tween-80 + alcohol) is 153 % of control.

Regarding `CC(=O)C(C[CH2][Hg][Cl])C(C)=O`, for the setting “endpoint: mean survival time, dose: 75.0 mg/kg/injection, schedule: Q01DX001 (ip), vehicle: other”, the T/C is 92 % of control.

With `CCOC(=O)c1cnc(SC)nc1NCc1cccc(C)c1`, the T/C was 98 % of control under setting [12], 96 % of control under setting [13] and 91 % of control under setting [14].

On to `Cc1ccc2nc(O)cc(=O)n2c1`, for which the T/C under setting [11] was 103 % of control, the T/C under setting [7] was 103 % of control, the T/C under setting [15] is 97 % of control and the T/C under setting [16] is 94 % of control.

As for `CN(C)c1ccc(C(=O)c2ccc(N(C)C)cc2)cc1`, the T/C under setting [17] was 96 % of control, the T/C under setting [18] is 102 % of control and the T/C under setting [19] is 109 % of control.

In the case of `CCCCCCCCCc1ccc(OCCOCCOCCOCCOCCOCCOCCCS(=O)(=O)[O-])cc1.CCCCCCCCCc1ccc(OCCOCCOCCOCCOCCOCCOCCCS(=O)(=O)[O-])cc1.NC1CCCCC1N.[Pt+4]`, the T/C (endpoint: median survival time, dose: 3.12 mg/kg/injection, schedule: Q04DX003 (ip), vehicle: saline with Tween-80) is 98 % of control; the T/C (endpoint: median survival time, dose: 6.25 mg/kg/injection, schedule: Q04DX003 (ip), vehicle: saline with Tween-80) is 98 % of control; the T/C (endpoint: median survival time, dose: 12.5 mg/kg/injection, schedule: Q04DX003 (ip), vehicle: saline with Tween-80) was 98 % of control; the T/C (endpoint: median survival time, dose: 25.0 mg/kg/injection, schedule: Q04DX003 (ip), vehicle: saline with Tween-80) was 95 % of control; the T/C (endpoint: median survival time, dose: 50.0 mg/kg/injection, schedule: Q04DX003 (ip), vehicle: saline with Tween-80) was 97 % of control; the T/C (endpoint: median survival time, dose: 100.0 mg/kg/injection, schedule: Q04DX003 (ip), vehicle: saline with Tween-80) is 102 % of control. Besides, the T/C (endpoint: median survival time, dose: 200.0 mg/kg/injection, schedule: Q04DX003 (ip), vehicle: saline with Tween-80) was 103 % of control.

With `Brc1ccc(Br)cc1`, the T/C runs as follows: under setting [17], 103 % of control; under setting [18], 100 % of control; under setting [19], 97 % of control.

`COc1ccc(CCN)cc1O`: the T/C reads like this: (endpoint: mean survival time, dose: 75.0 mg/kg/injection, schedule: Q01DX001 (ip), vehicle: saline) 98 % of control; (endpoint: mean survival time, dose: 150.0 mg/kg/injection, schedule: Q01DX001 (ip), vehicle: saline) 98 % of control; (endpoint: mean survival time, dose: 300.0 mg/kg/injection, schedule: Q01DX001 (ip), vehicle: saline) 98 % of control.

For the molecule `O=S(=O)(Cl)c1ccc(F)cc1`, the T/C is, setting by setting: under setting [7], 106 % of control; under setting [2], 101 % of control; under setting [15], 109 % of control; under setting [4], 102 % of control; under setting [16], 103 % of control; under setting [6], 98 % of control.

In the case of `COC(=O)CC1(C(=O)OC)Nc2cc(Cl)c(Cl)cc2S(=O)(=O)N1O` (stereo unspecified), the T/C is 106 % of control under setting [12], 94 % of control under setting [13] and 94 % of control under setting [14].

Take `COc1cccc(/C=C(\C(=O)O)c2cccc(OC)c2)c1`: the T/C runs as follows: (endpoint: mean survival time, dose: 50.0 mg/kg/injection, schedule: Q04DX002 (ip), vehicle: saline with Tween-80) 89 % of control; (endpoint: mean survival time, dose: 100.0 mg/kg/injection, schedule: Q04DX002 (ip), vehicle: saline with Tween-80) 86 % of control; (endpoint: mean survival time, dose: 200.0 mg/kg/injection, schedule: Q04DX002 (ip), vehicle: saline with Tween-80) 104 % of control.

For `C/C(=N\O)C1(C)CC=CCC1C(=O)O` (stereo unspecified), the T/C is, setting by setting: under setting [17], 90 % of control; under setting [8], 100 % of control; under setting [18], 93 % of control; under setting [9], 96 % of control; under setting [19], 94 % of control; under setting [10], 94 % of control.

Regarding `CCOC(=O)Nc1cc(N(C)C)c(N)c(N)n1`, the T/C (endpoint: mean survival time, dose: 100.0 mg/kg/injection, schedule: Q01DX001 (ip), vehicle: carboxymethylcellulose (CMC)) was 100 % of control and the T/C (endpoint: mean survival time, dose: 200.0 mg/kg/injection, schedule: Q01DX001 (ip), vehicle: carboxymethylcellulose (CMC)) is 100 % of control.

As for `O=C(CN1C(=O)CCC1=O)NCCc1cccc(OCc2ccccc2)c1`, the T/C is 94 % of control under setting [17]; 97 % of control under setting [8]; 89 % of control under setting [18]; 97 % of control under setting [9]; 91 % of control under setting [19]; 97 % of control under setting [10].

Turning to `Cc1cccc(N(C)C(=S)Oc2ccc3ccccc3c2)c1`, the T/C is, setting by setting: (endpoint: mean survival time, dose: 50.0 mg/kg/injection, schedule: Q01DX009 (ip), vehicle: Klucel (hydroxypropylcellulose) (HPC)) 112 % of control; (endpoint: mean survival time, dose: 100.0 mg/kg/injection, schedule: Q01DX009 (ip), vehicle: Klucel (hydroxypropylcellulose) (HPC)) 89 % of control; (endpoint: mean survival time, dose: 200.0 mg/kg/injection, schedule: Q01DX009 (ip), vehicle: Klucel (hydroxypropylcellulose) (HPC)) 89 % of control.

The values above are taken from PubChem BioAssay AID256 (DTP/NCI, 2004).
